# Results published in ChEMBL document CHEMBL1201862, “PubChem BioAssay data set” (2004).
#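 Each compound was tested at five concentrations against cells in 96-well plates for 48 hours. Here, GI50 denotes the concentration required for 50% inhibition of growth.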 Active and inactive are the calls of the source. Cut-off read from the data, not from the text of the source: active = GI50 up to about 1.1 µM and inactive = higher.
# Key:
# Assay in all cases: NCI tumour cell line growth inhibition, 48 h
# NCI-H460 = system: NCI-H460
# CCRF-CEM = system: CCRF-CEM
# COLO 205 = system: COLO 205
# RPMI-8226 = system: RPMI-8226
# A498 = system: A498
# HCT-15 = system: HCT-15
# SW-620 = system: SW-620
# U-251 = system: U-251
# UACC-257 = system: UACC-257
# MDA-MB-435 = system: MDA-MB-435
# UO-31 = system: UO-31
# NCI-H522 = system: NCI-H522
# CAKI-1 = system: CAKI-1
# TK-10 = system: TK-10
# SK-OV-3 = system: SK-OV-3
# NCI-H23 = system: NCI-H23
# SF-268 = system: SF-268
# SF-295 = system: SF-295
# SF-539 = system: SF-539
# NCI-H226 = system: NCI-H226
# OVCAR-8 = system: OVCAR-8
# HT-29 = system: HT-29
# SN12C = system: SN12C
# LOX IMVI = system: LOX IMVI
# A549 = system: A549
# SK-MEL-5 = system: SK-MEL-5
# 786-0 = system: 786-0
# PC-3 = system: PC-3
# KM12 = system: KM12
# MOLT-4 = system: MOLT-4
# SR = system: SR
# IGROV-1 = system: IGROV-1
# SNB-75 = system: SNB-75
# MCF7 = system: MCF7
# NCI/ADR-RES = system: NCI/ADR-RES
# MDA-MB-231 = system: MDA-MB-231
# HCT-116 = system: HCT-116
# HL-60 = system: HL-60
# RXF 393 = system: RXF 393
# Malme-3M = system: Malme-3M
# SK-MEL-2 = system: SK-MEL-2
# ACHN = system: ACHN
# OVCAR-4 = system: OVCAR-4
# SNB-19 = system: SNB-19
# HOP-92 = system: HOP-92
# MDA-N = system: MDA-N
# SK-MEL-28 = system: SK-MEL-28
# DU-145 = system: DU-145
# OVCAR-5 = system: OVCAR-5
# K562 = system: K562
# EKVX = system: EKVX
# Hs-578T = system: Hs-578T
# M14 = system: M14
# UACC-62 = system: UACC-62
structure (smiles),measurement,setting,value
COc1cc(O)c2c(=O)c(OC)c(-c3ccc(OC)c(OC)c3)oc2c1 [RETUSIN],GI50,NCI-H460,20 µM (inactive)
same,GI50,CCRF-CEM,> 100 µM (inactive)
same,GI50,COLO 205,> 100 µM (inactive)
same,GI50,RPMI-8226,87.7 µM (inactive)
same,GI50,A498,16.1 µM (inactive)
same,GI50,HCT-15,> 100 µM
same,GI50,SW-620,> 100 µM (inactive)
same,GI50,U-251,15.1 µM (inactive)
same,GI50,UACC-257,> 100 µM (inactive)
same,GI50,MDA-MB-435,> 100 µM (inactive)
same,GI50,UO-31,> 100 µM (inactive)
same,GI50,NCI-H522,2.79 µM (inactive)
same,GI50,CAKI-1,6.17 µM (inactive)
same,GI50,TK-10,> 100 µM (inactive)
same,GI50,SK-OV-3,5.02 µM (inactive)
Nc1ccn([C@@H]2CS[C@H](CO)O2)c(=O)n1 [LAMIVUDINE],GI50,NCI-H23,> 100 µM (inactive)
COc1ccc(-n2c(=O)[nH]n(C(C)=O)c2=O)cc1,GI50,SF-268,> 100 µM (inactive)
same,GI50,NCI-H460,> 100 µM (inactive)
same,GI50,SF-295,> 100 µM (inactive)
same,GI50,SF-539,> 100 µM (inactive)
same,GI50,NCI-H226,> 100 µM (inactive)
same,GI50,CCRF-CEM,> 100 µM (inactive)
same,GI50,COLO 205,> 100 µM (inactive)
same,GI50,OVCAR-8,> 100 µM (inactive)
same,GI50,HT-29,> 100 µM (inactive)
same,GI50,SN12C,> 100 µM (inactive)
same,GI50,RPMI-8226,> 100 µM (inactive)
same,GI50,NCI-H23,> 100 µM (inactive)
same,GI50,LOX IMVI,> 100 µM (inactive)
same,GI50,A498,> 100 µM (inactive)
same,GI50,A549,> 100 µM (inactive)
same,GI50,SK-MEL-5,> 100 µM (inactive)
same,GI50,HCT-15,> 100 µM
same,GI50,786-0,> 100 µM (inactive)
same,GI50,SW-620,> 100 µM (inactive)
same,GI50,PC-3,> 100 µM (inactive)
same,GI50,U-251,> 100 µM (inactive)
same,GI50,KM12,> 100 µM (inactive)
same,GI50,MOLT-4,> 100 µM (inactive)
same,GI50,SR,> 100 µM (inactive)
same,GI50,IGROV-1,> 100 µM (inactive)
same,GI50,UACC-257,> 100 µM (inactive)
same,GI50,SNB-75,> 100 µM (inactive)
same,GI50,MDA-MB-435,> 100 µM (inactive)
same,GI50,UO-31,> 100 µM (inactive)
same,GI50,MCF7,> 100 µM (inactive)
same,GI50,NCI/ADR-RES,> 100 µM (inactive)
same,GI50,NCI-H522,> 100 µM (inactive)
same,GI50,MDA-MB-231,> 100 µM (inactive)
same,GI50,HCT-116,> 100 µM (inactive)
same,GI50,HL-60,> 100 µM (inactive)
same,GI50,RXF 393,> 100 µM (inactive)
same,GI50,Malme-3M,> 100 µM (inactive)
same,GI50,SK-MEL-2,> 100 µM (inactive)
same,GI50,ACHN,> 100 µM (inactive)
same,GI50,OVCAR-4,> 100 µM (inactive)
same,GI50,CAKI-1,> 100 µM (inactive)
same,GI50,SNB-19,> 100 µM (inactive)
same,GI50,HOP-92,> 100 µM (inactive)
same,GI50,MDA-N,> 100 µM (inactive)
same,GI50,TK-10,> 100 µM (inactive)
same,GI50,SK-MEL-28,> 100 µM (inactive)
same,GI50,DU-145,> 100 µM (inactive)
same,GI50,OVCAR-5,> 100 µM (inactive)
same,GI50,K562,> 100 µM (inactive)
same,GI50,EKVX,> 100 µM (inactive)
same,GI50,Hs-578T,> 100 µM (inactive)
same,GI50,M14,> 100 µM (inactive)
same,GI50,UACC-62,> 100 µM (inactive)
